Measured values published in patent US8287923B2, “Compositions and methods for treating immune disorders” (priority 2005, dated 2012).

What was measured:
Assay type in all cases: cell-based, human
NHEK = experiment: Semi-quantitative RT-PCR of SS-A/Ro and SS-B/La mRNA; conditions: 100 uM EGCG, different times
Experimental: (§1) Cell treatment: ECCG was dissolved in cell culture media as a 50 mM stock immediately before use. Exponentially growing NS-SV-AC cells were incubated with 100 μM ECCG for various time periods in the growth media described above, and then were either extracted for total RNA or cell lysates prior to RT-PCR or Western blots.
(§2) Total RNA was extracted using an RNeasy total RNA isolation system (QIAGEN, Valentia, Calif.) RT reactions and PCR reactions were performed according to the manufacturer's protocol (Super Array Bioscience Corp). For amplification, the following pair of primers was used,
(§3) Amplification was started by heating for 1.5 min at 94° C., followed by 30 cycles for 52 kD SSA/Ro. 25 cycles for GAPDH and 25 cycles for SSB/La, each cycle consisting of 15
(§4) second at 94° C., 30 seconds at 57.3° C., and 1 min at 72° C. A final extension was performed at 72° C. for 5 min prior to gel analysis.
(§5) To further test this possibility, three cell types, NHEK, NS-SV-AC (an SV40 immortalized cell line derived from human submandibular acinar cells) and OC2 cells (derived from an oral squamous cell carcinoma) were treated with 100 uM EGCG for different times. A semi-quantitative estimate of SS-A/Ro and SS-B/La mRNA levels was then obtained by RT-PCR during the exponential period of amplification. GAPDH was used as a housekeeping gene control.

NS-SV-AC cells [1] = experiment: as above; conditions: 100 uM EGCG, different times
Experimental: as §1, §2, §3, §4, §5

NS-SV-AC cells [2] = experiment: TNF-α-induced cytotoxicity, MTT assay; conditions: dose-dependent; 100 ng/ml TNFα, 24 hr; p<0.05
Experimental: TNF-α cyotoxicity: NS-SV-AC cells (0.5×10<4> cells/well) were seeded in a 96-well microplate and either treated for 24 hr with EGCC as described above (or not treated in the control), in the presence of 100 ng/ml TNFα and 10 μg/ml cyclohexamide. After the treatments, viability was determined by the MTT assay. The cells in each well were washed with 200 μl of phosphate-buffered saline (PBS) and incubated with 100 μl of 2% (w/v) MTT in a solution of 0.05 M Tris-HCl (pH 7.6), 0.5 mM MgCl2, 2.5 mM CoCl2 and 0.25 M disodium succinate at 37° C. for 30 min. Cells were fixed by the addition of 100 μl of 4% (v/v) formalin in 0.2 M Tris-HCl (pH 7.6), and after a 5 min incubation at room temperature liquid was removed and the wells were allowed to dry. Each well was rinsed with 200 μl water and cells were solubilized by the addition of 100 μl of 6.35% (v/v) 0.1 N NaOH in DMSO. The colored formazan product was measured by a Thermo MAX micro plate reader (Molecular Devices Corp. Sunnyvale, Calif.) at a wavelength of 562 nm.
We examined the effects of EGCG on TNF-α-induced cytotoxicity of the human salivary gland acinar cell line NS-SV-AC using the MTT assay.
To examine the role of activation of the p38 signaling pathway in reducing TNF-α-induced cytotoxicity, cells were exposed to TNF-[alpha] and EGCG in the presence of either the p38 MAPK inhibitor SB203580 or the MEK inhibitor PD98059.

NS-SV-AC cells [3] = experiment: Western blot of p38, ERK and JNK phosphorylation
Experimental: Western blot. Cells were washed in ice-cold PBS and lysed for 20 min in RIPA buffer containing 1% (v/v) Nonidet P-40, 0.5% (w/v) sodium deoxycholate, 0.1% (w/v) SDS, 10 μg/ml leupeptin, 3 μg/ml aprotinin and 100 mM phenylmethylsulfonyl fluoride (PMSF). Samples of lysates containing the same amount of protein were loaded in each lane (we used 5-30μg, depending on the antibody used) and electrophoretically separated on a 12% SDS polyacrylamide gel. Following electrophoresis, proteins were transferred to a PVDF membrane (Immobilon™-P, Millipore Corporation, Bedford, Mass.). The membrane was blocked for 1 h with 5% (w/v) non-fat dry milk powder in PBST (0.1% Tween-20 in PBS) and then incubated for 1 h with primary antibody diluted in PBST/milk (Antibodies and dilutions: rabbit polyclonal JNK1/2, […], mouse monoclonal pJNK1/2, 1:1000, rabbit polyclonal ERK, 1:2000, rabbit polyclonal p38, 1:1000, rabbit polyclonal pp 38, 1:1000 and goat polyclonal actin, 1:2000). The membrane was washed three times with PBST and incubated with peroxidase-conjugated, affinity-purified anti-rabbit IgG (Santa Cruz Biotechnology, Inc.) for 1 h. Following extensive washing, the reaction was developed by enhanced chemiluminescent staining using ECL Western blotting detection reagents (Amersham Pharmacia Biotech Inc., Piscataway, N.J.).
p38 activation is one mechanism by which GTPs attenuates mechanisms of SS pathogenesis. […] Therefore, of these three signaling pathways, EGCG activates primarily p38 in NS-SV-AC cells.

Structure (SMILES): O=C(O[C@@H]1Cc2c(O)cc(O)cc2O[C@@H]1c1cc(O)c(O)c(O)c1)c1cc(O)c(O)c(O)c1 [EGCG, (−)-epigallocatechin-3-gallate]
- SS-B/La mRNA level (NHEK): decreased progressively and substantially
- SS-B/La mRNA level (NS-SV-AC cells [1]): decreased progressively and substantially
- protection from TNFα-induced cytotoxicity (NS-SV-AC cells [2]): up to 50%
- pERK (NS-SV-AC cells [3]): only a slight increase
- phosphorylation of JNK (NS-SV-AC cells [3]): not altered
- phosphorylation of p38 (NS-SV-AC cells [3]): rapid and sustained phosphorylation
- time to p38 phosphorylation (NS-SV-AC cells [3]): ≤ 30 min
